Data from paper PMC12083017, “Enhanced oral bioavailability of two Cistanche polysaccharides in acteoside: an in-depth analysis of intestinal flora, short-chain fatty acids, and pharmacokinetic regulation” (Frontiers in Nutrition, 2025).
Like-named read-outs stand apart in the source and are kept apart here.

How the values were obtained:
[1] = Pharmacokinetics of acteoside and its metabolites in rat plasma after oral acteoside (UPLC-QqQ-MS); format: in vivo, male Sprague–Dawley rats; details: for AUC(0-inf) / AUC(0-t) / Tmax / half-life / Cmax / MRT last / MRT inf: male, Sprague-Dawley, rat, plasma, po, 100 mg/kg; for MRT last: read-out: MRT(0-t); for MRT inf: read-out: MRT(0-∞); for Cmax of metabolite, WCP group relative to UCP group: following oral acteoside 100 mg/kg
Text: After a week of acclimatization, rats were split into three groups at random: the wine-processed Cistanche polysaccharide group (WCP group), the unprocessed Cistanche polysaccharide group (UCP group), and the blank control group (Control group). Six rats each group were raised in the same cage for breeding. Prior to the experiment, provide water and regular laboratory meals to the rats at will and fast for one night before the experiment. In order to ensure the continuous intake of Cistanche polysaccharides, it was calculated according to the requirements of the Chinese Pharmacopoeia ([16]) based on the daily dosage of Cistanche for adults, the polysaccharide yield of Cistanche polysaccharides and the equivalent conversion formula of the drug administration between humans and rats ([17]). An appropriate amount of raw Cistanche polysaccharide and Cistanche wine polysaccharide were weighed, dissolved in pure water, and prepared with 15.06 g·kg^-1 administration solution for continuous administration for 21 days. After fasting overnight, on day 22, two fresh fecal samples were collected from each rat, put straight into a sterile tube from the anus, avoiding contact with skin or urine, and stored in a -80°C freezer immediately after freezing with liquid nitrogen for subsequent analysis. For the pharmacokinetics, in a 1.5 mL heparinized centrifuge tube, 0.3 mL of continuous blood collected from the orbital vein was taken from 0 min, 5 min, 10 min, 30 min, 1.0 […], and 36 h following oral administration of acteoside (100 mg/kg) in the three groups. Using a cryo-centrifuge, plasma samples were produced by centrifuging at 800 g for ten minutes at 4°C. After that, plasma samples were gathered and kept for later examination at -80°C. […] Following this,20 μL of genistein (1 μg/mL IS) solution and 600 μL of cold acetonitrile were then included and centrifuged for 5 min, the […] proteins were separated by vortexing for 5 min, and then they were spun down for 15 min at 4°C at 14,000 rpm. The supernatant was gathered and dried at 40°C with a light nitrogen stream. The dried remnant was then immersed in 100 μL of 25% aqueous acetonitrile fluid, and centrifugation was performed again for 10 min at 4°C at 14,000 rpm. Ultimately, the LC-MS/MS system was injected with 2 μL of the liquid for analysis. A 1.7 μm and 2.1 × 100 mm I.D. […] With a column temperature of 30°C, the flow rate was fixed at 0.3 mL/min. In the mass spectrometry analysis, negative ionization mode was performed with the following optimized parameters: capillary voltage, 3.0 kV; desolvation temperature, 400°C. […] Thus, multiple reaction monitoring (MRM) of the acteoside transitions at 623.37 → 161.02 m/z, caffeic acid transitions at 179.01 → 135.03 m/z, hydroxytyrosol transitions at 153.03 → 122.95 m/z, genistein transitions at 269.08 → 132.57 m/z was used for quantification. […] Data were processed using Masslynx workstation data acquisition and qualitative analysis software (4.1, Waters, USA). Using the DAS program (Chinese Pharmacological Society, Beijing, China), pharmacokinetic parameters were estimated.

[2] = format: physicochemical; details: rat; for Short-term stability (RSD,%): 4 h; for Post-preparation stability (RSD,%): 24 h; for Long-term stability (RSD,%): 15 days
Experimental: A 4°C freezer was then used to make and store the stock solution (1 mg/mL). Moreover, 50% methanol was used to dilute 1 μg/mL of the IS working solution. […] Before being analyzed, the entire set of QC samples were kept at −80°C. An examination of stability using QC samples at low, medium, and high doses. Short-term stability was measured by injecting samples after staying 4 h at room temperature (25°C). After preparation, the sample was kept at 4°C for 24 h, and the dosage was injected to ascertain the sample’s stability. To determine long-term stability, samples were frozen at −80°C for 15 days before being injected. By thawing the samples three times in a row at room temperature and a freezer at −20°C, the freeze–thaw stability was ascertained.

[3] = acteoside in rat plasma, oral acteoside 100 mg/kg, Control group, n = 6
[4] = acteoside in rat plasma, oral acteoside 100 mg/kg, UCP group, n = 6
[5] = acteoside in rat plasma, oral acteoside 100 mg/kg, WCP group, n = 6
[6] = metabolite in rat plasma following oral acteoside 100 mg/kg, Control group, n = 6
[7] = metabolite in rat plasma following oral acteoside 100 mg/kg, Control group, n = 6, read-out: Cmax
[8] = metabolite in rat plasma following oral acteoside 100 mg/kg, UCP group, n = 6
[9] = metabolite in rat plasma following oral acteoside 100 mg/kg, UCP group, n = 6, read-out: Cmax
[10] = metabolite in rat plasma following oral acteoside 100 mg/kg, WCP group, n = 6
[11] = metabolite in rat plasma following oral acteoside 100 mg/kg, WCP group, n = 6, read-out: Cmax

SMILES: C[C@@H]1O[C@@H](O[C@@H]2[C@@H](O)[C@H](OCCc3ccc(O)c(O)c3)O[C@H](CO)[C@H]2OC(=O)/C=C/c2ccc(O)c(O)c2)[C@H](O)[C@H](O)[C@H]1O [Acteoside, acteoside]
- AUC(0-inf) [1, 3]: 4360 ± 130 ng·h/mL
- AUC(0-t) [1, 3]: 4200 ± 153 ng·h/mL
- Tmax [1, 3]: 0.5 h
- half-life [1, 3]: 2.06 ± 1.3 h
- Cmax ([1]; acteoside in rat plasma, oral acteoside 100 mg/kg, Control group, n = 6, read-out: Cmax): 863 ± 63.4 ng/mL
- MRT last [1, 3]: 3.94 ± 0.165 h
- MRT inf [1, 3]: 4.34 ± 0.512 h
- AUC(0-t) ([1]; acteoside in rat plasma, oral acteoside 100 mg/kg, UCP group (21 days UCP before), n = 6): 4980 ± 231 ng·h/mL
- AUC(0-inf) [1, 4]: 5050 ± 267 ng·h/mL
- Tmax [1, 4]: 0.75 h
- Cmax ([1]; acteoside in rat plasma, oral acteoside 100 mg/kg, UCP group, n = 6, read-out: Cmax): 1030 ± 98.3 ng/mL
- MRT last [1, 4]: 4.94 ± 0.165 h
- MRT inf [1, 4]: 5.29 ± 0.629 h
- AUC(0-t) ([1]; acteoside in rat plasma, oral acteoside 100 mg/kg, WCP group (21 days WCP before), n = 6): 6660 ± 543 ng·h/mL
- AUC(0-inf) [1, 5]: 6690 ± 633 ng·h/mL
- Tmax [1, 5]: 0.75 h
- Cmax ([1]; acteoside in rat plasma, oral acteoside 100 mg/kg, WCP group, n = 6, read-out: Cmax): 1590 ± 103 ng/mL
- MRT last [1, 5]: 4.996 ± 0.032 h
- MRT inf [1, 5]: 5.6 ± 0.837 h
- Cmax ([1]; rat plasma, oral acteoside 100 mg/kg, Control group, read-out: mean Cmax of acteoside): 863 ng/mL
- Cmax ([1]; rat plasma, oral acteoside 100 mg/kg, UCP group, read-out: mean Cmax of acteoside): 1030 ng/mL
- Cmax ([1]; rat plasma, oral acteoside 100 mg/kg, WCP group, read-out: mean Cmax of acteoside): 1590 ng/mL
- AUC(0-∞) of acteoside, increase after UCP relative to control ([1]; rats, oral acteoside 100 mg/kg): 1.16 times
- AUC(0-∞) of acteoside, increase after WCP relative to control ([1]; rats, oral acteoside 100 mg/kg): 1.54 times
- Cmax of acteoside, UCP group relative to control group ([1]; rats, oral acteoside 100 mg/kg): 1.19 times
- Cmax of acteoside, WCP group relative to control group ([1]; rats, oral acteoside 100 mg/kg): 1.84 times
- t1/2 of acteoside, WCP group relative to UCP group ([1]; rats, oral acteoside 100 mg/kg): 1.18 times
- Freeze–thaw stability (RSD,%) ([2]; 25 ng/mL): 7.93%
- Freeze–thaw stability (RSD,%) ([2]; 200 ng/mL): 4.56%
- Freeze–thaw stability (RSD,%) ([2]; 1000 ng/mL): 4.45%
- Short-term stability (RSD,%) ([2]; 25 ng/mL): 6.91%
- Short-term stability (RSD,%) ([2]; 200 ng/mL): 3.15%
- Short-term stability (RSD,%) ([2]; 1000 ng/mL): 2.79%
- Post-preparation stability (RSD,%) ([2]; 25 ng/mL): 7.03%
- Post-preparation stability (RSD,%) ([2]; 200 ng/mL): 3.46%
- Post-preparation stability (RSD,%) ([2]; 1000 ng/mL): 3.68%
- Long-term stability (RSD,%) ([2]; 25 ng/mL): 8.28%
- Long-term stability (RSD,%) ([2]; 200 ng/mL): 6.67%
- Long-term stability (RSD,%) ([2]; 1000 ng/mL): 4.99%

SMILES: O=C(O)/C=C/c1ccc(O)c(O)c1 [Caffeic acid, caffeic acid]
- AUC(0-inf) [1, 6]: 110 ± 15.4 ng·h/mL
- AUC(0-t) [1, 6]: 76.1 ± 13.3 ng·h/mL
- Tmax [1, 6]: 0.75 h
- half-life [1, 6]: 2.17 ± 0.693 h
- Cmax [1, 7]: 30.4 ± 14.2 ng/mL
- MRT last [1, 6]: 1.56 ± 0.172 h
- MRT inf [1, 6]: 2.51 ± 0.273 h
- AUC(0-inf) [1, 8]: 117 ± 13.3 ng·h/mL
- AUC(0-t) [1, 8]: 100 ± 17.7 ng·h/mL
- Tmax [1, 8]: 0.75 h
- Cmax [1, 9]: 44.1 ± 15.8 ng/mL
- MRT last [1, 8]: 1.54 ± 0.166 h
- MRT inf [1, 8]: 2.18 ± 0.267 h
- AUC(0-inf) [1, 10]: 144 ± 26.7 ng·h/mL
- AUC(0-t) [1, 10]: 125 ± 25.9 ng·h/mL
- Tmax [1, 10]: 0.75 h
- half-life [1, 10]: 1.29 ± 0.914 h
- Cmax [1, 11]: 55.5 ± 16.9 ng/mL
- MRT last [1, 10]: 1.52 ± 0.161 h
- MRT inf [1, 10]: 2.1 ± 0.256 h
- Cmax of metabolite, WCP group relative to UCP group ([1]; rats): 1.26 times
- Freeze–thaw stability (RSD,%) ([2]; 25 ng/mL): 9.14%
- Freeze–thaw stability (RSD,%) ([2]; 200 ng/mL): 8.23%
- Freeze–thaw stability (RSD,%) ([2]; 1000 ng/mL): 7.08%
- Short-term stability (RSD,%) ([2]; 25 ng/mL): 7.78%
- Short-term stability (RSD,%) ([2]; 200 ng/mL): 7.34%
- Short-term stability (RSD,%) ([2]; 1000 ng/mL): 4.91%
- Post-preparation stability (RSD,%) ([2]; 25 ng/mL): 8.33%
- Post-preparation stability (RSD,%) ([2]; 200 ng/mL): 7.87%
- Post-preparation stability (RSD,%) ([2]; 1000 ng/mL): 6.87%
- Long-term stability (RSD,%) ([2]; 25 ng/mL): 9.75%
- Long-term stability (RSD,%) ([2]; 200 ng/mL): 8.56%
- Long-term stability (RSD,%) ([2]; 1000 ng/mL): 8.43%

SMILES: OCCc1ccc(O)c(O)c1 [Hydroxytyrosol, hydroxytyrosol]
- AUC(0-inf) [1, 6]: 42.5 ± 4.24 ng·h/mL
- AUC(0-t) [1, 6]: 40.6 ± 3.24 ng·h/mL
- Tmax [1, 6]: 0.25 h
- half-life [1, 6]: 0.813 ± 0.129 h
- Cmax [1, 7]: 30.3 ± 10.9 ng/mL
- MRT last [1, 6]: 1.2 ± 0.132 h
- MRT inf [1, 6]: 1.38 ± 0.145 h
- AUC(0-inf) [1, 8]: 60.5 ± 5.72 ng·h/mL
- AUC(0-t) [1, 8]: 56.5 ± 5.41 ng·h/mL
- Tmax [1, 8]: 0.25 h
- half-life [1, 8]: 0.908 ± 0.106 h
- Cmax [1, 9]: 44.4 ± 14 ng/mL
- MRT last [1, 8]: 1.19 ± 0.124 h
- MRT inf [1, 8]: 1.46 ± 0.153 h
- AUC(0-inf) [1, 10]: 91.3 ± 6.92 ng·h/mL
- AUC(0-t) [1, 10]: 90.6 ± 6.73 ng·h/mL
- Tmax [1, 10]: 0.25 h
- half-life [1, 10]: 0.537 ± 0.116 h
- Cmax [1, 11]: 71.4 ± 32 ng/mL
- MRT last [1, 10]: 1.27 ± 0.139 h
- MRT inf [1, 10]: 1.54 ± 0.168 h
- Cmax of metabolite, WCP group relative to UCP group ([1]; rats): 1.61 times
- Freeze–thaw stability (RSD,%) ([2]; 25 ng/mL): 7.04%
- Freeze–thaw stability (RSD,%) ([2]; 200 ng/mL): 5.78%
- Freeze–thaw stability (RSD,%) ([2]; 1000 ng/mL): 4.24%
- Short-term stability (RSD,%) ([2]; 25 ng/mL): 5.34%
- Short-term stability (RSD,%) ([2]; 200 ng/mL): 3.26%
- Short-term stability (RSD,%) ([2]; 1000 ng/mL): 2.44%
- Post-preparation stability (RSD,%) ([2]; 25 ng/mL): 6.32%
- Post-preparation stability (RSD,%) ([2]; 200 ng/mL): 4.89%
- Post-preparation stability (RSD,%) ([2]; 1000 ng/mL): 3.21%
- Long-term stability (RSD,%) ([2]; 25 ng/mL): 7.78%
- Long-term stability (RSD,%) ([2]; 200 ng/mL): 5.86%
- Long-term stability (RSD,%) ([2]; 1000 ng/mL): 4.63%
